According to patent publication US6489356B2, “Method for treating pain in humans” (priority 2000, dated 2002):
Entries after “also recorded” stand apart in the source; their conditions may differ. Read-outs that look alike come from different tables or passages of the source.

What was measured:
[1] = target: T1, A1 adenosine receptor (Cavia porcellus, UniProt P47745); conditions: isolated ileum; cited from earlier work
T1 construct: functional studies conducted in the isolated guinea pig left atrium and isolated ileum; from tissue; host or cells: isolated guinea pig ileum
T1 sequence (P47745 1-326): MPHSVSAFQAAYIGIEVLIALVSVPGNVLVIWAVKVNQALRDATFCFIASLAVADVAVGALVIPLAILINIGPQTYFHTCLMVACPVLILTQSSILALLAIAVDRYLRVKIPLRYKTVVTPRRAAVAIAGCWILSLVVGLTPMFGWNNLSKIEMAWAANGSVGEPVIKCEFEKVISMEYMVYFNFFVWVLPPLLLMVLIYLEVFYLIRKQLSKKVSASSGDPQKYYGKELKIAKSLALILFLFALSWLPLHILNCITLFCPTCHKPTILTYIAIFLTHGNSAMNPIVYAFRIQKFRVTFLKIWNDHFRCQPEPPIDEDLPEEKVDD

[2] = target: T2, A1 adenosine receptor (Rattus norvegicus, UniProt P25099); conditions: rat brain, cited from earlier work
T2 construct: from tissue; host or cells: rat brain
T2 sequence (P25099 1-326): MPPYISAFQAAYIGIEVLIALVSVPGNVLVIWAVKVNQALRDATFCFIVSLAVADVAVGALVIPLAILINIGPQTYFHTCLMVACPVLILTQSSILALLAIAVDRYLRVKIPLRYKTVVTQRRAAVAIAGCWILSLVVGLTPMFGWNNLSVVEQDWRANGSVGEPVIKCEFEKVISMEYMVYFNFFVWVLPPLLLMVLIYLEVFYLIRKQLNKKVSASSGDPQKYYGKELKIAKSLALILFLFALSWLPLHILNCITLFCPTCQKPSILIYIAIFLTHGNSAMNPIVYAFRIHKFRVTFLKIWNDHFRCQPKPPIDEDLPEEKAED

[3] = target: T1, A1 adenosine receptor; conditions: isolated guinea pig left atrium; cited from earlier work
[4] = system: mechanical hypersensitivity after spinal nerve ligation in the rat; test: spinal nerve ligation model of neuropathic pain, von Frey withdrawal threshold; type: in vivo; conditions: for dose returning sensitivity (withdrawal threshold) to normal: rat
Text: Following Animal Care and Use Committee approval, mechanical hypersensitivity was generated in male Sprague-Dawley rats as described in the following paper. (Kim,S. H. and Chung, J. M., An experimental model for peripheral neuropathy produced by segmental spinal nerve ligation in the rat, Pain, 50 (1992) 355-363. Briefly, under general anesthesia with inhalational halothane, the left L5 and L6 spinal nerves were identified through a small laminotomy and tightly ligated. Approximately one week later, an intrathecal catheter was placed under general anesthesia by insertion under direct vision of a polyethylene catheter through a small slit in the dura at the cisterna magnum and advanced 8.5 cm such that the catheter tip resided in the lower lumbar intrathecal space. Animals were studied approximately one week later.
Ligation of the lumbar spinal nerves results in a primarily unilateral increase in the sensitivity to light touch on the operated side. Sensitivity was assessed via application of calibrated von Frey filaments. The withdrawal threshold was determined using an up down method as described in Chaplan, S. R., Bach, F. W., Pogrel, J. W., Chung, J. M., and Yaksh, T. L., Quantitative assessment of tactile allodynia in the rat paw, J. Neurosci. Methods, 53 (1994) 55-63.
Von Frey filaments are scientific apparatus designed to apply a pre-determined pressure to a surface. These filaments are flexible bristles with a flat tip. The applied pressure is determined by the diameter of the filament.
In these studies, the animals are placed on top of a wired cage. The goal of these studies is to determine the pressure at which the animal perceives the pressure applied as painful and lifts its foot. The scientist determines the discomfort pressure threshold by pressing the tip of von Frey filaments, one filament at a time, to the bottom of the foot through the wired cage floor. When a slight pressure is applied to the underside of the foot, the animal feels the sensation but it will not lift its foot because this sensation is not painful, or uncomfortable.
In a normal animal, the threshold for discomfort is approximately 35 g pressure. In an animal whose foot is rendered more sensitive to pressure, the withdrawal threshold is less than 4 g. That is, a pressure that is not perceived as pain in the unaltered, control foot will be perceived as a painful stimulus in the surgically altered foot.
Mechanical withdrawal threshold was determined before and at intervals after intrathecal injection of Compound T62, 1-5 μg. […] In the study, the investigator was blinded to the dose administered. Compound T62 was dissolved in cyclodextrin, which had no effect on withdrawal threshold when administered alone.
Animals received 6 injections, each separated by a minimum of 4 days to prevent development of tolerance. The withdrawal threshold to mechanical stimulation with von Frey filaments was determined before and at intervals of […] following intrathecal injection, then again at 20 hours following injection. A dose response was determined using the time of peak effect (2 hr for each compound) and the ED50 determined by linear regression.
The ED50 for the mixture (total of each component combined) was determined by linear regression, an isobologram constructed, and the observed ED50 was compared to the theoretical ED50 by a t-test as previously described in Tallarida, R. J., Statistical analysis of drug combinations for synergism, Pain, 49 (1992) 93-97. In order to determine the site of action of Compound T62, two experiments were performed. […]
Compound T62 was dissolved in 45% […] (RBI, Natick, Mass. ). Drugs were administered intrathecal in a 5 μl volume followed by 10 μl of saline to flush the catheter.
Data are presented as median±25th and 75th percentile (for raw withdrawal thresholds) or by mean±SE. Linear regression was used to calculate the ED50 for each drug alone and for the fixed ratio combination. […]

[5] = system: mouse; type: in vivo; conditions: 1024 mg/kg i.p., listed as Compound T-62
Procedure: As indicated above, Compound T62 is an effective treatment for neuropathic pain at a dose of 15 mg/kg by intraperitoneal (i.p.) injection. In addition, the safety of T62 was evaluated at 64, 128, 256, 512 and 1024 mg/kg (Table 1).

[6] = system: phenylbenzoquinone-induced writhing in mice; test: phenylbenzoquinone (PBQ) writhing test; type: in vivo, mouse
Procedure: Testing for use of Compound T62 in treatment of persistent chemical pain was performed following the phenylbenzoquinone (PBQ) writhing tests. This method detects general analgesic activity. Mice were injected with phenylbenzoquinone (PBQ) (1.25 mg/kg i.p.). […] The number of writhes was counted for 10 minutes beginning 5 minutes after injection of PBQ. 8 mice were studied for each treatment group and the test was performed blind.

[7] = target: T3, human recombinant A1 adenosine receptors (Homo sapiens, UniProt P30542); test: cyclic AMP production in CHO cells expressing the A1 adenosine receptor; type: cell-based
T3 construct: expressed in transfected cells; host or cells: CHO cells (CHO: huA1)
T3 sequence (P30542 1-326): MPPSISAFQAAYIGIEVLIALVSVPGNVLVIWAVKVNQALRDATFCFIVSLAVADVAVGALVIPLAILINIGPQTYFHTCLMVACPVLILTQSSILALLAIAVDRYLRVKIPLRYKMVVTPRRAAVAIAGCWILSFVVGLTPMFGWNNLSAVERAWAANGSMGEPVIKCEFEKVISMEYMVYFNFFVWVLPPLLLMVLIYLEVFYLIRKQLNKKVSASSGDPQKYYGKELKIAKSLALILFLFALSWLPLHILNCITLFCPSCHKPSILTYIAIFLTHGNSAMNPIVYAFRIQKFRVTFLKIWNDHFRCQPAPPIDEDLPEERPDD
Procedure: Cells were removed from liquid nitrogen storage when needed, and grown in Ham's F-12 culture medium with 10% fetal bovine serum and 0.5 mg/ml of antibiotic G-418. Aliquots of cells were placed into 12-well cultured plates with culture medium, serum, and antibiotic for 48-72 hours, by which time the cells had grown to a confluent monolayer.
To begin an experiment, growth medium was removed from the culture plates and cells were washed once with Hanks' buffered saline solution. […] After 6 min of incubation at 36° C. in the presence of drugs, the incubation solution was removed and hydrochloric (final concentration, 50 mM) was added to terminate drug action.
The content of cAMP in acidified extracts of cells was determined by radioimmunoassay as previously described (12). The compounds listed in reference 7 (U.S. Pat. No. 5,939,432) relating to allosteric enhancers, were tested using this method.
Because the magnitude of the effects of allosteric enhancers on cells changed with time and batch of cells, the actions of each test compound to enhance the effect of CPA (and thus reduce cAMP content of CHO cells) were normalized to the response of cells to 10 μM PD 81,723. […] Enhancement by Compound T62 began at 10 nM. There was no antagonism of this effect even at 10 μM of Compound T62.

[8] = target: T4, A1 receptor in rat forebrain membranes (Rattus norvegicus, UniProt P25099); conditions: compound 30 in reference (5), Bruns et al.; read-out: ED50 as an enhancer; cited from earlier work
T4 construct: from tissue; host or cells: rat forebrain membranes
T4 sequence (P25099 1-326): T2 sequence (P25099 1-326)

[9] = system: carrageenan-induced hyperalgesia in rats; test: carrageenan paw model of inflammatory pain, Hargreaves thermal withdrawal; type: in vivo, rat
Procedure: Compound T62 was tested for its efficacy in treating inflammatory pain by use of the carrageenan paw model. Carrageenan is a water-extractable polysaccharide obtained from seaweeds. […] Carrageenan-induced hyperalgesia is believed to occur as a consequence of sensitization of primary afferent nociceptors and neuron plasticity intrinsic to the spinal cord.
Animals were prepared with chronic lumbar intrathecal catheters. Baseline measurement of hindpaw withdrawal latency to thermal stimulation were obtained on a Hargreaves device. Animals received a single intrathecal (IT) injection of Compound T-62 ranging from 0.5 to 40 μg. Withdrawal thresholds were measured on a Hargreaves device every 30 minutes for three hours.

## CCOC(=O)N1CCc2c(sc(N)c2C(=O)c2ccccc2)C1 [PD 78,416]
[1]
  enhancement of the effect of the agonist CPA: failed to enhance
[2]; competition studies
  enhancement of [3H]CHA binding: not observed
[2]
  effect on dissociation of [3H]CHA binding: retards the dissociation
[3]
  enhancement of the effect of the agonist CPA: enhanced the effect

## Nc1ncnc2c1ncn2[C@@H]1O[C@H](CO)[C@@H](O)[C@H]1O [adenosine, reference compound]
[4]; intrathecal injection
  time of peak effect: 2 h
  dose returning sensitivity (withdrawal threshold) to normal: 30 µg

## Nc1sc2c(c1C(=O)c1ccc(Cl)cc1)CCCC2 [Compound T62, (2-Amino-4,5,6,7-tetrahydrobenzo[b]thiophen-3-yl)(4-chlorophenyl)methanone]
[5]
  Irwin test observations: tremor and tip-toe gait
[6]; 128 mg/kg i.p. −30 minutes
  NUMBER OF WRITHES (5 to 1 5 min after phenylbenzoquinone) mean ± s.e.m.: 13.9 ± 3.4
  percent change from control: −18%
[6]; 128 mg/kg i.p. −1 hour
  NUMBER OF WRITHES (5 to 1 5 min after phenylbenzoquinone) mean ± s.e.m.: 10.9 ± 2.6
  percent change from control: −58%
[6]; 128 mg/kg i.p. −2 hours
  NUMBER OF WRITHES (5 to 1 5 min after phenylbenzoquinone) mean ± s.e.m.: 17.3 ± 2.0
  percent change from control: −38%
[6]; 128 mg/kg i.p. −4 hours
  NUMBER OF WRITHES (5 to 1 5 min after phenylbenzoquinone) mean ± s.e.m.: 13.1 ± 3.5
  percent change from control: −36%
[6]; 128 mg/kg i.p. −8 hours
  NUMBER OF WRITHES (5 to 1 5 min after phenylbenzoquinone) mean ± s.e.m.: 15.3 ± 4.1
  percent change from control: +11%
[6]; 512 mg/kg i.p. −30 minutes
  NUMBER OF WRITHES (5 to 1 5 min after phenylbenzoquinone) mean ± s.e.m.: 5.9 ± 2.2
  percent change from control: −65%
[6]; 512 mg/kg i.p. −1 hour
  NUMBER OF WRITHES (5 to 1 5 min after phenylbenzoquinone) mean ± s.e.m.: 6.4 ± 1.0
  percent change from control: −75%
[6]; 512 mg/kg i.p. −2 hours
  NUMBER OF WRITHES (5 to 1 5 min after phenylbenzoquinone) mean ± s.e.m.: 3.5 ± 1.8
  percent change from control: −87%
[6]; 512 mg/kg i.p. −4 hours
  NUMBER OF WRITHES (5 to 1 5 min after phenylbenzoquinone) mean ± s.e.m.: 4.8 ± 1.5
  percent change from control: −77%
[6]; 512 mg/kg i.p. −8 hours
  NUMBER OF WRITHES (5 to 1 5 min after phenylbenzoquinone) mean ± s.e.m.: 6.0 ± 1.9
  percent change from control: −56%
[6]; intraperitoneal, mice, chemically induced pain
  dose required for efficacy: 128 mg/kg
[7]; CHO:huA1 cells cAMP
  enhancer potency compared to PD 81,723: more potent enhancer than PD 81,723
[7]; CHO:huA1 cells, forskolin 1 μM, CPA, normalized to 10 μM PD 81,723
  concentration at which enhancement of the CPA induced inhibition of cyclic AMP production began: 10 nM
[7]; at 10 μM Compound T62
  antagonism of the A1 receptor: does not antagonize; also recorded: no antagonism
[4]; IP injection, 15 mg/kg
  duration of effect on withdrawal threshold: at least 4 hours
[4]; intraperitoneal injection, 15 mg/kg
  effect on hypersensitivity: effective to reduce hypersensitivity
[4]; intraperitoneal, rats, neuropathic pain
  dose required for efficacy: 15 mg/kg
[4]; intrathecal DPCPX (5 μg)
  effect of intraperitoneal Compound T62 after A1 antagonist: blocked
[4]; intrathecal doses larger than 1-5 μg
  motor effect: obvious motor blockade
[4]; intrathecal injection
  duration of effect on withdrawal threshold: over 4 hours
  time of peak effect: 2 h
  dose returning sensitivity (withdrawal threshold) to normal: 5 µg
[8]
  EC50: 15.3 µM
[9]; intrathecal, rats with 2 mg intraplantar carrageenan, n=4
  dose sufficient to completely reverse hypersensitivity of the inflamed foot to pre-carrageenan levels: 1 µg
[9]; normal rats, intrathecal 0.5 to 40 μg
  effect on withdrawal thresholds: no significant effect
